Results reported in patent publication US20230293542A1, “SENSORY STIMULATING PSYCHOTROPIC DRUG” (KANSAI MEDICAL UNIVERSITY, priority 2020, published 2023).

Experiments:
C57/BL6 mice [1] = assay: Contextual fear conditioning 30 min after intraperitoneal administration (inhibition of fear memory formation), freezing behavior; type: in vivo; conditions: intraperitoneal 200 μl of 1 v/v % solution in saline, 30 min before conditioning; freezing for 10 min on day 1, no odor; compared with saline-administered group (=100%); n=6; FIG. 2-12
Method: • Day 0: To about 2 month-old C57/BL6 mice was intraperitoneally administered 200 μl of saline, or 1 v/v % 2-methyl-2-thiazoline solution (dissolved in saline), or 1 v/v % 5-methylthiazole solution (dissolved in saline), or 1 v/v % 4-ethyl-2-methyl-2-thiazoline solution (dissolved in saline), or 1 v/v % 2,4,5-trimethyl-3-thiazoline solution (dissolved in saline), or 1 v/v % thiomorpholine solution (dissolved in saline), or 1 v/v % allyl isothiocyanate (AITC) solution (dissolved in saline), or 1 v/v % 2,3-diethylpyrazine solution (dissolved in saline), or 1 v/v % 2,6-lutidine solution (dissolved in saline) (each condition n=6). Thirty minutes after the administration, the mice were placed in an electric shock chamber, and 2-second electric shock (0.6 mA) was given 6 times at 2-minute intervals for 12 min for contextual fear conditioning. • Day 1: Mice were placed in the electric shock chamber (no odor) used for learning on the previous day, and freezing behavior was measured for 10 min using dedicated software (Freeze frame 2).
In addition, a student's t-test was performed between the saline-administered group and each compound-administered group (*p<0.05, ***p<0.001).
• Day 0: To about 2 month-old C57/BL6 mice was intraperitoneally administered 200 μl of saline or 1 v/v % 2-(allylthio)-2-thiazoline solution (dissolved in saline) (each condition n=6). Thirty minutes after the administration, the mice were placed in an electric shock chamber, and 2-second electric shock (0.6 mA) was given 6 times at 2-minute intervals for 12 min for contextual fear conditioning. • Day 1: Mice were placed in the electric shock chamber (no odor) used for learning on the previous day, and freezing behavior was measured for 10 min using dedicated software (Freeze frame 2).
A student's t-test was performed between the saline-administered group and the 2-(allylthio)-2-thiazoline-administered group (*p<0.05).
• Day 0: To about 2 month-old C57/BL6 mice was intraperitoneally administered 200 μl of saline or 1 v/v % 4-tert-butyl-2-methylthiazole solution (dissolved in saline) (each condition n=6). Thirty minutes after the administration, the mice were placed in an electric shock chamber, and 2-second electric shock (0.6 mA) was given 6 times at 2-minute intervals for 12 min for contextual fear conditioning. • Day 1: Mice were placed in the electric shock chamber (no odor) used for learning on the previous day, and freezing behavior was measured for 10 min using dedicated software (Freeze frame 2).
• Day 0: To about 2 month-old C57/BL6 mice was intraperitoneally administered 200 μl of saline or 1 v/v % 2-ethoxythiazole solution (dissolved in saline) (each condition n=6). Thirty minutes after the administration, the mice were placed in an electric shock chamber, and 2-second electric shock (0.6 mA) was given 6 times at 2-minute intervals for 12 min for contextual fear conditioning. • Day 1: Mice were placed in the electric shock chamber (no odor) used for learning on the previous day, and freezing behavior was measured for 10 min using dedicated software (Freeze frame 2).
• Day 0: To about 2 month-old C57/BL6 mice was intraperitoneally administered 200 μl of saline or 1 v/v % 2-methylbenzothiazole solution (dissolved in saline) (each condition n=6). Thirty minutes after the administration, the mice were placed in an electric shock chamber, and 2-second electric shock (0.6 mA) was given 6 times at 2-minute intervals for 12 min for contextual fear conditioning. • Day 1: Mice were placed in the electric shock chamber (no odor) used for learning on the previous day, and freezing behavior was measured for 10 min using dedicated software (Freeze frame 2).
• Day 0: To about 2 month-old 057/BL6 mice was intraperitoneally administered 200 μl of saline or 1 v/v % 2-mercaptothiazole solution (dissolved in saline) (each condition n=6). […]

C57/BL6 mice [2] = assay: Contextual fear conditioning in the presence of thiazoline-related fear odor (inhibition of fear memory formation), freezing behavior; type: in vivo; conditions: FIG. 1
Method: • Day 0: About 2-month-old C57/BL6 mice were placed in an electric shock chamber, and 2-second electric shock (0.6 mA) was given 6 times at 2-minute intervals for 12 min for contextual fear conditioning. Conditioning was performed under 4 conditions of no odor condition (control; n=6) (group 1) and an electric shock chamber with filter paper impregnated with 100 μl of 2-methyl-2-thiazoline (2MT) condition (2MT; n=6) (group 2), or no odor condition (control; n=6) (group 3) and an electric shock chamber with filter paper impregnated with 10 μl of 2-methyl-2-thiazoline (2MT) condition (2MT; n=6) (group 4). • Day 1: Mice were placed in the electric shock chamber (no odor) used for learning on the previous day, and freezing behavior was measured for 10 min using dedicated software (Freeze frame 2; ActiMetrics). • Day 3: The mice of group 1 and group 2 were placed in an electric shock chamber with filter paper impregnated with 100 μl of Eugenol, and freezing behavior was measured for 10 min. The mice in group 3 and group 4 were placed in an electric shock chamber with filter paper impregnated with 10 μl of Eugenol, and freezing behavior was measured for 10 min.
A student's t-test was also performed between the group with no odor and the group with 2MT (**p<0.01, ***p<0.001).

| SMILES | frequency of freezing behavior during the test (day 1) (C57/BL6 mice [1]) | freezing behavior in the context with odor (eugenol odor context; day 3) (C57/BL6 mice [2]; filter paper impregnated with 100 μl or 10 μl of 2MT during fear conditioning, freezing measured for 10 min on day 3 with Eugenol, compared to group that learned with no odor) | freezing behavior in the no odor context (day 1) (C57/BL6 mice [2]; filter paper impregnated with 100 μl or 10 μl of 2MT in electric shock chamber during fear conditioning, freezing measured for 10 min on day 1, compared to no odor group) |
| --- | --- | --- | --- |
| CCc1nccnc1CC [2,3-diethylpyrazine] | significant decrease |  |  |
| CC1=NC(C)SC1C (centres unmarked) [2,4,5-trimethyl-3-thiazoline] | significant decrease |  |  |
| Cc1cccc(C)n1 [2,6-lutidine] | significant decrease |  |  |
| C=CCSC1=NCCS1 [2-(allylthio)-2-thiazoline] | significant decrease |  |  |
| CC(=O)c1ccc[nH]1 [2-acetylpyrrole] | significant decrease |  |  |
| NC1=NCCS1 [2-amino-2-thiazoline] | significant decrease |  |  |
| CCOc1nccs1 [2-ethoxythiazole] | significant decrease |  |  |
| Sc1nccs1 [2-mercaptothiazole] | significant decrease |  |  |
| CC1=NCCS1 [2-methyl-2-thiazoline] | significant decrease | marked decrease | remarkably decreased |
| Cc1nc2ccccc2s1 [2-methylbenzothiazole] | significant decrease |  |  |
| Cc1nccs1 [2-methylthiazole] | significant decrease |  |  |
| CC1CNCCS1 (centres unmarked) [2-methylthiomorpholine] | significant decrease |  |  |
| CCC1CSC(C)=N1 (centres unmarked) [4-ethyl-2-methyl-2-thiazoline] | significant decrease |  |  |
| Cc1nc(C(C)(C)C)cs1 [4-tert-butyl-2-methylthiazole] | significant decrease |  |  |
| Cc1cncs1 [5-methylthiazole] | significant decrease |  |  |
| C=CCN=C=S [AITC, allyl isothiocyanate] | significant decrease |  |  |
| C=C(C)CN=C=S [methallyl isothiocyanate] | significant decrease |  |  |
| C1CSCCN1 [thiomorpholine] | significant decrease |  |  |
